As a reminder, the melting point is the temperature, or range, at which the solid turns liquid.

Counter-ions that a name gives are not always drawn.

The compound `COc1ccc2[nH]cc([C@H]3CC[C@H](N4CCN(c5cccc6[nH]ccc56)CC4)CC3)c2c1` (as salt: HCl) (hydrate or solvate) [Example 8b, 5-Methoxy-3-[trans-4-[4-(1H-indol-4-yl)-1-piperazinyl]cyclohexyl]-1H-indole] showed a melting point of 194 to 196 °C. The same measure for `N#Cc1ccc2[nH]cc([C@H]3CC[C@H](N4CCN(c5cccc6[nH]ccc56)CC4)CC3)c2c1` (as salt: HCl) [Example 7b, 3-{4-[(1,4-trans)-4-(1H-Indol-4-yl)-piperazinyl-1-yl]cyclohexyl}-1H-indole-5-carbonitrile]: over 310 °C; for `COc1cc(N2CCN([C@H]3CC[C@@H](c4cn(C)c5cc(F)ccc54)CC3)CC2)c2ncccc2c1` [Example 81, 8-{cis-4-[4-(6-Fluoro-1-methyl-1H-indol-3-yl)cyclohexyl]-1-piperazinyl}-6-methoxyquinoline]: 219 to 223 °C.

In the case of `CC(C)n1cc([C@H]2CC[C@@H](N3CCN(c4cccc5[nH]ccc45)CC3)CC2)c2cc(C#N)ccc21` (as salt: HCl) (hydrate or solvate) [Example 15a, 3-{(1,4-cis)-4-[4-(1H-indol-4-yl)-piperazin-1-yl]-cyclohexyl}-1-isopropyl-1H-indole-5-carbonitrile], the melting point is 285 to 286 °C.

Compound `Cn1cc([C@H]2CC[C@H](N3CCN(c4cccc5[nH]ccc45)CC3)CC2)c2cc(C#N)ccc21` (as salt: HCl) (hydrate or solvate) [Example 12b, 3-{(1,4-trans)-4-[4-(1H-indol-4-yl)-piperazin-1-yl]-cyclohexyl}-1-methyl-1H-indole-5-carbonitrile] displayed a melting point of 286 to 288 °C.

The compound `Fc1ccc2c(c1)[nH]cc2[C@H]1CC[C@@H](N2CCN(c3cccc4c3OCCO4)CC2)CC1` (as salt: HCl) [Example 25a, 3-{(1,4-cis)-4-[4-(2,3-Dihydro-benzo[1,4]dioxin-5-yl)-piperazin-1-yl]-cyclohexyl}-6-fluoro-1H-indole] yielded a melting point of 228 to 230 °C. In the case of `Fc1cc2c(c(N3CCN([C@H]4CC[C@@H](c5c[nH]c6ccc(F)cc65)CC4)CC3)c1)OCC2` (as salt: HCl) (hydrate or solvate) [Example 32a, 5-Fluoro-3-{(1,4-cis)-4-[4-(5-fluoro-2,3-dihydro-benzofuran-7-yl)-piperazin-1-yl]-cyclohexyl}-1H-indole], the melting point lay in the range of 196 to 198 °C. The same measure for `c1cc(N2CCN([C@H]3CC[C@H](c4c[nH]c5ncccc54)CC3)CC2)c2cc[nH]c2c1` (as salt: HCl) [Example 10b, 3-{(1,4-trans)-4-[4-(1H-Indole-4-yl)-piperazin-1-yl]-cyclohexyl}-1H-pyrrolo[2,3-b]pyridine]: > 250 °C (dec.); for `Cn1cc([C@H]2CC[C@@H](N3CCN(c4cc(C(=O)O)cc5cccnc45)CC3)CC2)c2cc(C#N)ccc21` (as salt: oxalate) [Example 73, 8-[4-[(cis)-4-(5-Cyano-1-methyl-1H-indole-3-yl)cyclohexyl]-1-piperazinyl]-6-quinolinecarboxylic Acid]: 230 °C. On to `Fc1ccc2c(c1)[nH]cc2[C@H]1CC[C@H](N2CCN(c3cccc4c3OCCO4)CC2)CC1` (as salt: HCl) [Example 25b, 3-{(1,4-trans)-4-[4-(2,3-Dihydro-benzo[1,4]dioxin-5-yl)-piperazin-1-yl]-cyclohexyl}-6-fluoro-1H-indole], for which the melting point lay within 309 to 310 °C. The same measure for `Cn1cc([C@H]2CC[C@H](N3CCN(c4cc(C=O)cc5cccnc45)CC3)CC2)c2cc(C#N)ccc21` [Example 72, 8-[4-[(trans)-4-(5-Cyano-1-methyl-1H-indole-3-yl)-cyclohexyl]-piperazin-1-yl]-6-quinolinecarbaldehyde]: 201 to 203 °C.

In the case of `COc1cc2cccnc2c(N2CCN([C@H]3CC[C@@H](c4cn(C)c5ccc(C#N)cc54)CC3)CC2)n1` (as salt: salt) [Example 66b, (cis)-3-{4-[4-(6-Methoxy[1,7]naphthyridin-8-yl)piperazin-1-yl]cyclohexyl}-1-methyl-1H-indole-5-carbonitrile], the melting point is 230 to 233 °C. The same measure for `Cn1cc([C@H]2CC[C@@H](N3CCN(c4cc(F)cc5c4OCC5)CC3)CC2)c2cc(C#N)ccc21` (as salt: HCl) [Example 33c, 3-{(1,4-cis)-4-[4-(5-Fluoro-2,3-dihydro-benzofuran-7-yl)-piperazin-1-yl]-cyclohexyl}-1-methyl-1H-indole-5-carbonitrile]: 282 to 284 °C; for `COc1cc(N2CCN([C@H]3CC[C@@H](c4c[nH]c5cc(F)ccc54)CC3)CC2)c2ncccc2c1` [Example 80, 8-{cis-4-[4-(6-Fluoro-1H-indol-3-yl)cyclohexyl]-1-piperazinyl}-6-methoxyquinoline]: 239 to 243 °C; for `COc1ccccc1C1CCN([C@H]2CC[C@H](c3c[nH]c4ccc(F)cc43)CC2)CC1` (as salt: HCl) [Example 19b, 5-Fluoro-3-{(1,4-trans)-4-[4-(2-methoxy-phenyl)-piperidin-1-yl]-cyclohexyl}-1H-indole]: 297 to 299 °C.

With `Fc1cc2c(c(N3CCN([C@H]4CC[C@H](c5c[nH]c6ccc(F)cc65)CC4)CC3)c1)OCCC2` (as salt: HCl) (hydrate or solvate) [Example 31b, 5-Fluoro-3-{(1,4-trans)-4-[4-(6-fluoro-chroman-8-yl)-piperazin-1-yl]-cyclohexyl}-1H-indole], the melting point was 286 to 288 °C. The result for `Fc1cc2c(c(N3CCN([C@H]4CC[C@H](c5c[nH]c6ccc(F)cc65)CC4)CC3)c1)OCC2` (as salt: HCl) (hydrate or solvate) [Example 32b, 5-Fluoro-3-{(1,4-trans)-4-[4-(5-fluoro-2,3-dihydro-benzofuran-7-yl)-piperazin-1-yl]-cyclohexyl}-1H-indole] reads 303 to 305 °C; that for `CCn1cc([C@H]2CC[C@H](N3CCN(c4cccc5[nH]ccc45)CC3)CC2)c2cc(C#N)ccc21` (as salt: HCl) [Example 13b, 1-Ethyl-3-{(1,4-trans)-4-[4-(1H-indol-4-yl)-piperazin-1-yl]-cyclohexyl}-1H-indole-5-carbonitrile], 250 °C (dec.).

The compound `COc1cc(N2CCN([C@H]3CC[C@H](c4cn(C)c5ccc(C#N)cc54)CC3)CC2)c2ncccc2c1C` [Example 52b, (trans)-3-{4-[4-(6-Methoxy-5-methylquinolin-8-yl)piperazin-1-yl]cyclohexyl}-1-methyl-1H-indole-5-carbonitrile] came in with a melting point of 212 to 213 °C. The same measure for `COc1cc(N2CCN([C@H]3CC[C@H](c4cn(C)c5ccc(C#N)cc54)CC3)CC2)c2nccnc2c1` [Example 65b, (trans)-3-{4-[4-(7-Methoxyquinoxalin-5-yl)piperazin-1-yl]cyclohexyl}-1-methyl-1H-indole-5-carbonitrile]: 230 to 233 °C.

With `Cn1cc([C@H]2CC[C@@H](N3CCN(c4cccc5cccnc45)CC3)CC2)c2cc(F)ccc21` (as salt: HCl) (hydrate or solvate) [Example 28, 8-{4-(1,4-cis)-4-[4-(5-Fluoro-1-methyl-1H-indol-3-yl)-cyclohexyl]-piperazin-1-yl}-quinoline], the melting point lay within 261 to 263.5 °C.

The compound `Brc1ccc2[nH]cc([C@H]3CC[C@@H](N4CCN(c5cccc6[nH]ccc56)CC4)CC3)c2c1` (as salt: HCl) [Example 5a, 5-Bromo-3-[cis-4-[4-(1H-indol-4-yl)-1-piperazinyl]cyclohexyl]-1H-indole] showed a melting point of 276 °C.

In turn, `COc1cc(N2CCN([C@H]3CC[C@@H](c4cn(C)c5ccc(C#N)cc54)CC3)CC2)c2nc(C)ccc2c1` [Example 51a, (cis)-3-{4-[4-(6-Methoxy-2-methylquinolin-8-yl)piperazin-1-yl]cyclohexyl}-1-methyl-1H-indole-5-carbonitrile] returned a melting point of 201 to 203 °C. Compound `Clc1ccc2[nH]cc([C@H]3CC[C@H](N4CCN(c5cccc6[nH]ccc56)CC4)CC3)c2c1` (as salt: HCl) (hydrate or solvate) [Example 6b, 5-Chloro-3-[trans-4-[4-(1H-indol-4-yl)-1-piperazinyl]cyclohexyl]-1H-indole] gave a melting point of 314 to 315.5 °C. As to `c1cc(N2CCN([C@H]3CC[C@H](c4c[nH]c5ccccc54)CC3)CC2)c2cc[nH]c2c1` (as salt: HCl) [Example 1b, 3-[trans-4-[4-(1H-Indol-4-yl)-1-piperazinyl]cyclohexyl]-1H-indole], the melting point was 305 °C (dec.). The result for `Cn1cc([C@H]2CC[C@@H](N3CCN(c4cccc5cccnc45)CC3)CC2)c2cc(C#N)ccc21` (as salt: HCl) [Example 30, 1-Methyl-3-[(1,4-cis)-4-(4-quinolin-8-yl-piperazin-1-yl)-cyclohexyl]-1H-indole-5-carbonitrile] reads 288 to 289 °C; that for `Cn1cc([C@H]2CC[C@@H](N3CCN(c4cc(Br)cc5cccnc45)CC3)CC2)c2cc(F)ccc21` [Example 58a, (cis)-6-Bromo-8-{4-[4-(5-fluoro-1-methyl-1H-indol-3-yl)cyclohexyl]piperazin-1-yl}quinoline], 215 to 217 °C. The same measure for `COc1ccccc1N1CCN([C@H]2CC[C@@H](c3c[nH]c4ccc(F)cc43)CC2)CC1` (as salt: HCl) [Example 18, 5-Fluoro-3-{(cis)-4-[4-(2-methoxy-phenyl)-piperazin-1-yl]-cyclohexyl}-1H-indole]: 170 to 172 °C. The result for `COc1ccccc1N1CCN(C2CC=C(c3c[nH]c4ccc(F)cc34)CC2)CC1` (stereo not drawn) (as salt: HCl) [Example 35, 5-Fluoro-3-{4-[4-(2-methoxy-phenyl)-piperazin-1-yl]cyclohex-1-enyl}-1H-indole] reads 250 °C. Consider `Cn1ccc2c(N3CCN([C@H]4CC[C@@H](c5cn(C)c6ccc(C#N)cc65)CC4)CC3)cccc21` (as salt: HCl) [Example 17, 1-Methyl-3-{(1,4-cis)-4-[4-(1-methyl-1H-indol-4-yl)-piperazin-1-yl]-cyclohexyl}-1H-indole-5-carbonitrile], for which the melting point was in the range of 252 to 255 °C.
